Experimental data reported in patent US10381110B2, “Molecules” (University of Dundee, priority 2010, dated 2019).

Legend:
dopamine D4 [1] = molecular target: T1, dopamine D4 (Homo sapiens, UniProt P21917); assay: Primary radioligand binding assay (NIMH PDSP); settings: primary radiobinding assay, N-methylspiperone
T1 sequence (P21917 1-419): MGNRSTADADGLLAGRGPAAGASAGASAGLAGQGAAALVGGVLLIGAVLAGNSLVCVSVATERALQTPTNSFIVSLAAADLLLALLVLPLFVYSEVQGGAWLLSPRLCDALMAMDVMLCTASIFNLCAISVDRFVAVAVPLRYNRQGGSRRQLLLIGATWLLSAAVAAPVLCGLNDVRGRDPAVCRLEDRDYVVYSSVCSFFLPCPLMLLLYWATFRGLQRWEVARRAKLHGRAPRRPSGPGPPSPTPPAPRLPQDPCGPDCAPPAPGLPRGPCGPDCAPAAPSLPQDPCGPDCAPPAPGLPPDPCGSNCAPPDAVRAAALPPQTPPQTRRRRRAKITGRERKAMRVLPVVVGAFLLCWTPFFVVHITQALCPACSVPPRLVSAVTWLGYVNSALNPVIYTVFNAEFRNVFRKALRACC

dopamine D2 [2] = molecular target: T2, dopamine D2 (Homo sapiens, UniProt P14416); assay: Primary radioligand binding assay (NIMH PDSP); settings: primary radiobinding assay, [3H]N-methylspiperone
Target sequence in this assay (P14416 whole entry, species assumed): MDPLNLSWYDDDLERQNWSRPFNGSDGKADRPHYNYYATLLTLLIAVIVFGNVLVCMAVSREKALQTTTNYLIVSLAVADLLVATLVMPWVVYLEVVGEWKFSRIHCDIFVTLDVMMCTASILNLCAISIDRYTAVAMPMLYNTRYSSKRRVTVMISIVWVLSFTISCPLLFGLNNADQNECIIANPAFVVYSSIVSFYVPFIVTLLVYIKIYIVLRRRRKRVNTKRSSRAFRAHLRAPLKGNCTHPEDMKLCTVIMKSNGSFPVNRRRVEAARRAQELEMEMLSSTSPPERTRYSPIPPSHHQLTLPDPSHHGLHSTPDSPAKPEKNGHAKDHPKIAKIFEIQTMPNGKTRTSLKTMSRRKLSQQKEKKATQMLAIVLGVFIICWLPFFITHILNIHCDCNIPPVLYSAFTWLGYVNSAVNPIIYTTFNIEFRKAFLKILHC

dopamine D4 [3] = molecular target: T1, dopamine D4; settings: previously reported analogue; read-out: dopamine D4 Ki (literature); cited from earlier work
dopamine D2 [4] = molecular target: T2, dopamine D2; settings: read-out: dopamine D2 Ki (literature); previously assayed analogue; cited from earlier work
Target sequence in this assay (P14416 whole entry): as the sequence (P14416 whole entry, species assumed) above

Alpha1D = molecular target: T3, Alpha1D (Homo sapiens, UniProt P25100); assay: Primary radioligand binding assay (NIMH PDSP); settings: primary radiobinding assay, [3H]Prazosin
T3 sequence (P25100 1-572): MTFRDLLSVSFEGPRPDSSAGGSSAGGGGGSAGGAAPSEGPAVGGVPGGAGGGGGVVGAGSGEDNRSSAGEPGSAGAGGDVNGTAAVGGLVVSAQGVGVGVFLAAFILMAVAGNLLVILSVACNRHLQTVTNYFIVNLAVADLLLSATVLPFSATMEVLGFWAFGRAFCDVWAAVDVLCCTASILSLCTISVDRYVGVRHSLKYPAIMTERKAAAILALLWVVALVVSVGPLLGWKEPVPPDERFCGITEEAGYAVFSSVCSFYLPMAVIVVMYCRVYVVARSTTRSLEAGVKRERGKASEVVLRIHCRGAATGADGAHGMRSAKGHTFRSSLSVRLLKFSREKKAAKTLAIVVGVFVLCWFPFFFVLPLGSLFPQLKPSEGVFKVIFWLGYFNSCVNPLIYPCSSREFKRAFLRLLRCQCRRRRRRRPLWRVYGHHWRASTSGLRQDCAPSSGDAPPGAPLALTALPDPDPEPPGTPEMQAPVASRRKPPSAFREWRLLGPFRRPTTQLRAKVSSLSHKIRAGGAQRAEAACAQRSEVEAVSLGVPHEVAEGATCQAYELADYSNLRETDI

5HT1a = molecular target: T4, 5HT1a (Homo sapiens, UniProt P08908); assay: Secondary radioligand binding assay (Ki)
T4 sequence (P08908 1-422): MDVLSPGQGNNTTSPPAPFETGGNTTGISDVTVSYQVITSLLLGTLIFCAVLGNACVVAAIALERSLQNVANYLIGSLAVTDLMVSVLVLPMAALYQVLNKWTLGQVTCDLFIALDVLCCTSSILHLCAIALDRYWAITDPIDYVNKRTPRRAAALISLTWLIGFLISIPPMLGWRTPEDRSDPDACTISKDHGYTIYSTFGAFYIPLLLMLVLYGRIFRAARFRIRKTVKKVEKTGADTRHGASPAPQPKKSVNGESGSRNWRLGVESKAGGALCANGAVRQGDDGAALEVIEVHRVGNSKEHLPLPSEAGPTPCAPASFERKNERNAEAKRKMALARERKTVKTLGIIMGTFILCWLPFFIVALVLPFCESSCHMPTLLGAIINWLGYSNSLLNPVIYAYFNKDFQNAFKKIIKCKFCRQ

α1A (Alpha1A) = molecular target: T5, α1A (Alpha1A) (Homo sapiens, UniProt P35348); assay: Secondary radioligand binding assay (Ki)
T5 sequence (P35348 1-466): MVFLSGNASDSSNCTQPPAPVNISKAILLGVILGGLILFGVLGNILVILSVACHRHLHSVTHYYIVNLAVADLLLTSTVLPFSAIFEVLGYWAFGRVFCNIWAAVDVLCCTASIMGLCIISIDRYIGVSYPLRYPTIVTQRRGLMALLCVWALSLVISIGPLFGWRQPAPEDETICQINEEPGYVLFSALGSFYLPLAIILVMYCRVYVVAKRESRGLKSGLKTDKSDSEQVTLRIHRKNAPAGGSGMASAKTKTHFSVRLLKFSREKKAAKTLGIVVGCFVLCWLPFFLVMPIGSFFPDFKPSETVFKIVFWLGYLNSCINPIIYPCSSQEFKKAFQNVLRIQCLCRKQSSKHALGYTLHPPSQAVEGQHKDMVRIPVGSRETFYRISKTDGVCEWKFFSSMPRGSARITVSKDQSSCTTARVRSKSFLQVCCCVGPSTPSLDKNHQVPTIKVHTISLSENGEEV

5-HT2B = 5-HT2B (Homo sapiens, UniProt P41595); assay: Secondary radioligand binding assay (Ki)
dopamine D5 = dopamine D5 (Homo sapiens, UniProt P21918); assay: Primary radioligand binding assay (NIMH PDSP); settings: primary radiobinding assay, [3H]SCH233930; note: test concentration or dose not given here
dopamine D3 = dopamine D3 (Homo sapiens, UniProt P35462); assay: Primary radioligand binding assay (NIMH PDSP); settings: primary radiobinding assay, N-methylspiperone; note: test concentration or dose not given here
Alpha1A = molecular target: T6, Alpha1A (Homo sapiens, UniProt P35348); assay: Primary radioligand binding assay (NIMH PDSP); settings: primary radiobinding assay, [3H]Prazosin; note: test concentration or dose not given here
T6 sequence (P35348 1-466): T5 sequence (P35348 1-466)

Alpha1B = molecular target: T7, Alpha1B (Homo sapiens, UniProt P35368); assay: Primary radioligand binding assay (NIMH PDSP); settings: primary radiobinding assay, [3H]Prazosin; note: test concentration or dose not given here
T7 sequence (P35368 1-520): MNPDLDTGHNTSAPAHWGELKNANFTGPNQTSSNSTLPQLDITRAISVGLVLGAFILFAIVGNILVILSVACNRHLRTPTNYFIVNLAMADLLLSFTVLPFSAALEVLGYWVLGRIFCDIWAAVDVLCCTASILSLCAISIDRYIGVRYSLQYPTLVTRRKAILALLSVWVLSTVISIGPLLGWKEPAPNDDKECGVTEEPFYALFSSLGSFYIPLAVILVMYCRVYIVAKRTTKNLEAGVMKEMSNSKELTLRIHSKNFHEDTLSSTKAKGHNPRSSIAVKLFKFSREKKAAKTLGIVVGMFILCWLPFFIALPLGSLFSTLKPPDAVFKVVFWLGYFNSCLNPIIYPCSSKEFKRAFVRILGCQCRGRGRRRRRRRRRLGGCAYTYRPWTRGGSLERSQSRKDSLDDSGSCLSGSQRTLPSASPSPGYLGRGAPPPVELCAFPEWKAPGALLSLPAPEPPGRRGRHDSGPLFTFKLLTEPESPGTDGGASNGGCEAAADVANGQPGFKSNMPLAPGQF

5-HT7 = 5-HT7 (Homo sapiens, UniProt P34969); assay: Secondary radioligand binding assay (Ki)
dopamine D1 = dopamine D1 (Homo sapiens, UniProt P21728); assay: Primary radioligand binding assay (NIMH PDSP); settings: primary radiobinding assay, [3H]SCH233930; note: test concentration or dose not given here
Throughout, for D4 (% inh): test concentration or dose not given here.

Chain of dopamine D1 (P21728 whole entry): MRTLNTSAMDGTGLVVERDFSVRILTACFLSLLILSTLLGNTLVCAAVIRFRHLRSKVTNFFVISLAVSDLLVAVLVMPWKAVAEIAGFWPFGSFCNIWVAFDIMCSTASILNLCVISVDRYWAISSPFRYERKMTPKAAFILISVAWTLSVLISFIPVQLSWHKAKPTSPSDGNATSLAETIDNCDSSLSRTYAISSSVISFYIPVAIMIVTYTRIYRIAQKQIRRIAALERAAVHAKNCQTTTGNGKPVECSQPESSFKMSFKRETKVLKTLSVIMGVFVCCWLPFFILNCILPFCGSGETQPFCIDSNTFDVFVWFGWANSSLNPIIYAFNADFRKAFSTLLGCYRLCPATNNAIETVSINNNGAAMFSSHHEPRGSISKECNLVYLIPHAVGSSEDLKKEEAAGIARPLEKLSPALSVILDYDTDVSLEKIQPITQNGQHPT
Chain of 5-HT2B (P41595 whole entry, species assumed): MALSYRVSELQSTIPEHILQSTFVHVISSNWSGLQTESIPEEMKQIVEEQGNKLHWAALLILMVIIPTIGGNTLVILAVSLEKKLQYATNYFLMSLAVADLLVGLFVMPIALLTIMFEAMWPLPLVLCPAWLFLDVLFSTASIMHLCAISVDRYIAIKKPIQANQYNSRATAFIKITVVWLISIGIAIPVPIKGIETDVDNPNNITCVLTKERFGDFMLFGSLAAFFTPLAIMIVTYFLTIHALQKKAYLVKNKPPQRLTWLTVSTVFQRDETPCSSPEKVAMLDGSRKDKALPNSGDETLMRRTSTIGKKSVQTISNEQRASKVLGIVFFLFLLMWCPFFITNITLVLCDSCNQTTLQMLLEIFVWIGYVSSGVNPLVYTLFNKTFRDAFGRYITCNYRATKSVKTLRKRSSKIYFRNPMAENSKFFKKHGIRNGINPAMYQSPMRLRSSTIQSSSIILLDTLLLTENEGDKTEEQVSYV
Chain of dopamine D5 (P21918 whole entry): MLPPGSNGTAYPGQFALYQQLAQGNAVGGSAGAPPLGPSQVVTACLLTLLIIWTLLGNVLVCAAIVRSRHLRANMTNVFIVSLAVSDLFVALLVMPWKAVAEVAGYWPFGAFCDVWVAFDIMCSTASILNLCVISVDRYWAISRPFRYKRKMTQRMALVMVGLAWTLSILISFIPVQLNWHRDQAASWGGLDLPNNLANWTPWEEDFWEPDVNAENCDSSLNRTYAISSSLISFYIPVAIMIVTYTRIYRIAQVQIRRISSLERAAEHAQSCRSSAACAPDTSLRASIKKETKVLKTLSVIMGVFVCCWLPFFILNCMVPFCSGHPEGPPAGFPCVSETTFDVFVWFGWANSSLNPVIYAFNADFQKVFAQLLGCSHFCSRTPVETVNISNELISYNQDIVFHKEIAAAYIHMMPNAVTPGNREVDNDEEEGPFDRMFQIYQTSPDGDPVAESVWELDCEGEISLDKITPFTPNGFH
Chain of 5-HT7 (P34969 whole entry, species assumed): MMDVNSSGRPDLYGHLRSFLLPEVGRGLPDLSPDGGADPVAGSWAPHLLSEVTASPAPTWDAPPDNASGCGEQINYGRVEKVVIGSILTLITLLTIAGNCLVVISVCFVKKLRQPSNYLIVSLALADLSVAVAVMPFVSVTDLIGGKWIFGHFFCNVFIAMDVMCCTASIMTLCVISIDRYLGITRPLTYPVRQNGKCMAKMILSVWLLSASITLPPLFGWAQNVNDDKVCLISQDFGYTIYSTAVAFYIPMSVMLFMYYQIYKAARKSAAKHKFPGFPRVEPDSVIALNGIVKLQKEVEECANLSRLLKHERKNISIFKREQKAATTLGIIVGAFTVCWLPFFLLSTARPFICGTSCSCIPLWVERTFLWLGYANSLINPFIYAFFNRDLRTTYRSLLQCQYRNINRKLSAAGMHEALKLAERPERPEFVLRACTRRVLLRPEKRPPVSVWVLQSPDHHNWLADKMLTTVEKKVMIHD
Chain of dopamine D3 (P35462 whole entry): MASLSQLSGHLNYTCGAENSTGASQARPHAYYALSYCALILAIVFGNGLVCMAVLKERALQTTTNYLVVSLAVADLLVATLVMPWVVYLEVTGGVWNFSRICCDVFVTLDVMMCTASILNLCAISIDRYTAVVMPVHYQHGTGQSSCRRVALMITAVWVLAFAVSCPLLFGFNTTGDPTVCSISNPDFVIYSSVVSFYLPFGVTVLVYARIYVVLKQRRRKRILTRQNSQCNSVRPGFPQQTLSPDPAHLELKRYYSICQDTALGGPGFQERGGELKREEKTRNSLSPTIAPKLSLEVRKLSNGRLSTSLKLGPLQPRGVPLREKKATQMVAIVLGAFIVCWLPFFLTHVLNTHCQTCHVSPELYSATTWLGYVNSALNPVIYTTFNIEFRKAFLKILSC

Alpha1D (% inh) (Alpha1D)	Ki (5HT1a)	Ki (α1A (Alpha1A))	Ki (5-HT2B)	D5 (% inh) (dopamine D5)	D3 (% inh) (dopamine D3)	Alpha1A (% inh) (Alpha1A)	Alpha1B (% inh) (Alpha1B)	Ki (5-HT7)	D1 (% inh) (dopamine D1)	Structure (SMILES)	D4 (% inh) (dopamine D4 [1])	D2 (% inh) (dopamine D2 [2])	Ki (dopamine D4 [3])	Ki (dopamine D2 [4])
										COc1cc2c(cc1OC)C(=O)C(CC1CCN(Cc3ccccc3)CC1)C2 (stereo not drawn) [donepezil, reference compound]	89.2 % inh	18.6 % inh		
										O=C1c2ccccc2CN1CCCCN1CCN(c2ccccc2)CC1 [2-(4-(4-Phenyl-1-piperazinyl)butyl)-1-isoindolinone]			134 nM	319 nM
31.1 % inh	8430 nM	2010 nM	1450 nM	18 % inh	51 % inh	64.8 % inh	−19.8 % inh	2820 nM	−1 % inh	CC1Cc2ccccc2N1C(=O)CN1CCN(c2ccccc2)CC1 (stereo not drawn) [STT-00185641]		2 % inh		
